Marks after values point to notes of the source that are not given here.
Key:
Format in all cases: physicochemical
[1] = Hygroscopicity or deliquescency evaluation (moisture adsorption, DVS); conditions: for Hygroscopicity or deliquescency, conclusion in words: from Table 5; for Hydration state (hydration stage in moisture adsorption): normal temperature, relative humidity of 10 to 95%
Protocol: Hygroscopicity or deliquescency was evaluated as follows by using a moisture adsorption measurement device DVS-1 or DVS-intrinsic (Surface Measurement Systems Limited). Each sample (about 5 mg) was placed into an aluminum plate of which the tare weight had been corrected in advance, and the plate was hung on the precision balance of said device to precisely measure the weight at the start of measurement. The humidity was changed in a stepwise manner in a chamber at 25° C., the weight change was recorded with time, and the equilibrium weight was calculated at each humidity. On the basis of the weight at a dried condition (0% RH), the weight change rate and hydration number at each humidity were calculated.
Hygroscopicity or deliquescency was evaluated as follows by using a moisture adsorption measurement device DVS-1 or DVS-intrinsic (Surface Measurement Systems Limited). Each sample was placed into a cell of which the tare weight had been corrected in advance, and the cell was hung on the precision balance of said device to precisely measure the weight at the start of measurement. The humidity was changed in a stepwise manner, the weight change was recorded with time, and the equilibrium weight was calculated at each humidity. On the basis of the weight of anhydride converted from the amount of water at a dried condition (0% RH) or at the start of measurement observed by an alternative method, the weight change rate at each humidity was calculated.

[2] = Thermal stability evaluation (TG/DTA weight change); conditions: for Thermal stability, conclusion in words: did not show a significant weight change (Succinate Form A: at 25 to 148° C., melting point)
Protocol: Thermal stability was measured and evaluated by using a thermogravimetry/differential thermal analyzer TG/DTA7200 (SII NanoTechnology Inc.) under the following conditions. • Rate of temperature increase: 10° C./min • Range of temperature increase: 25 to 300° C. • Atmosphere: nitrogen 200 mL/min <Hygroscopicity or Deliquescency Evaluation>
Thermal stability was measured and evaluated by using a thermogravimetry/differential thermal analyzer TG/DTA7200 (SII NanoTechnology Inc.) under the following conditions • Rate of temperature increase: 10° C./min • Range of temperature increase: 30 to 300° C. • Atmosphere: nitrogen 200 mL/min • or • using a TGA/DSC1 thermogravimetric analyzer (manufactured by Mettler Toledo, STARe system) under the following conditions. • Rate of temperature increase: 10° C./min • Range of temperature increase: 25 to 300° C. • Atmosphere: nitrogen 50 mL/min <Hygroscopicity or Deliquescency Evaluation>

[3] = Chemical stability evaluation (storage 1 week, liquid chromatography peak area %); conditions: for Chemical stability, conclusion in words: did not show a significant increase of related substances
Protocol: Each about 1 mg of a sample stored at 60° C. (sealed) or 60° C./75% RH (open) for 1 week and an unstored sample (at the start of test) was dissolved into a mixed solution of acetonitrile/water (1:1) (5 mL) to obtain each sample solution. A test was carried out by liquid chromatographic method under the following conditions to measure each peak area (%).
Each peak area (%) was measured by using Waters ACQUITY UPLC under the following conditions. • Detector: Photodiode array (measurement wavelength: 239 nm) • Column: Waters ACQUITY BEH C18 (2.1 mm×100 mm, 1.7 μm) • Column temperature: constant temperature about 40° C. • Mobile phase: Solution A; water/TFA (2000:1), Solution B; Acetonitrile/TFA (2000:1) • Concentration gradient control: B % 2→100% (15 minutes) • Flow rate: 0.5 mL/min • Injection volume: 2 μL
Each sample was stored at 60° C. under a sealed condition and at 60° C. under 75% RH for 1 week, and an increase or decrease of related substance(s) after the storage was calculated by high-performance liquid chromatographic method on the basis of the area percentage of each peak. Also, the condition of each sample after the storage was observed.

[4] = Table 5, 25° C., relative to weight at 0% RH
[5] = Table 5, change of related substances (peak area %) vs start
[6] = Table 5, stored 1 week at 60° C. sealed, change of related substances (peak area %) vs start
[7] = Table 10, increase or decrease of related substance(s), HPLC area percentage
[8] = Table 10, *1 with hydration stage

## CC(=O)NC1CCC(NC(=O)CN2CCN(c3nncc(-c4ccc(C)cc4)n3)CC2)CC1.CC(=O)NC1CCC(NC(=O)CN2CCN(c3nncc(-c4ccc(C)cc4)n3)CC2)CC1.O=S(=O)(O)O.O=S(=O)(O)O.O=S(=O)(O)O.O=S(=O)(O)O.O=S(=O)(O)O (stereo not drawn) [Sulfate Form A crystal]
[1]; [4]
  Hygroscopicity or Deliquescency Weight change at 90% RH: 8%

## CC(=O)NC1CCC(NC(=O)CN2CCN(c3nncc(-c4ccc(C)cc4)n3)CC2)CC1.Cc1ccc(S(=O)(=O)O)cc1 (stereo not drawn) [Tosilate Form B crystal]
[2]; 25° C.-melting point
  Thermal stability TG: weight change: 0.7%
[2]
  Thermal stability, conclusion in words: excellent thermal stability
[3]; [5]
  Chemical stability 60° C., 75% RH, 1 week (open): −0.05%
[3]; [6]
  Chemical stability 60° C. (sealed): −0.07%
[3]
  Chemical stability, conclusion in words: excellent chemical stability
[1]; [4]
  Hygroscopicity or Deliquescency Weight change at 90% RH: 7.5%
[1]
  Hygroscopicity or deliquescency, conclusion in words: excellent in the reduced hygroscopicity or deliquescency

## CC(=O)NC1CCC(NC(=O)CN2CCN(c3nncc(-c4ccc(C)cc4)n3)CC2)CC1.CS(=O)(=O)O (stereo not drawn) [Mesilate Form A crystal]
[2]; 120° C.
  Thermal stability TG: weight change: 0.8%
[2]
  Thermal stability, conclusion in words: excellent thermal stability
[3]; [5]
  Chemical stability 60° C., 75% RH, 1 week (open): 5.73%
[3]; [6]
  Chemical stability 60° C. (sealed): −0.13%
[1]; [4]
  Hygroscopicity or Deliquescency Weight change at 90% RH: 17%

## CC(=O)NC1CCC(NC(=O)CN2CCN(c3nncc(-c4ccc(C)cc4)n3)CC2)CC1.Cl (stereo not drawn) [Hydrochloride Form A crystal]
[2]; 25-160° C.
  Thermal stability TG: weight change: 0.4%
[2]
  Thermal stability, conclusion in words: excellent thermal stability
[3]; [5]
  Chemical stability 60° C., 75% RH, 1 week (open): −0.01%
[3]; [6]
  Chemical stability 60° C. (sealed): −0.01%
[3]
  Chemical stability, conclusion in words: excellent chemical stability
[1]; [4]
  Hygroscopicity or Deliquescency Weight change at 90% RH: 7.5%

## CC(=O)NC1CCC(NC(=O)CN2CCN(c3nncc(-c4ccc(C)cc4)n3)CC2)CC1.O=C(O)C=CC(=O)O (stereo not drawn) [Maleate Form B crystal]
[2]; 25-90° C.
  Thermal stability TG: weight change: 0.4%
[2]; 120-260° C.
  Thermal stability TG: weight change: 17.6%
[2]
  Thermal stability, conclusion in words: excellent thermal stability
[3]; [5]
  Chemical stability 60° C., 75% RH, 1 week (open): 9.66%
[3]; Table 5, remark in words under the value (glycolate: free body was observed at 60° C., 75% RH, 1 week)
  Condition of the sample after storage at 60° C., 75% RH, 1 week (open): (deliquescent)
[3]; [6]
  Chemical stability 60° C. (sealed): 0.02%
[1]; [4]
  Hygroscopicity or Deliquescency Weight change at 90% RH: 7.5%

## Br.Br.CC(=O)NC1CCC(NC(=O)CN2CCN(c3nncc(-c4ccc(C)cc4)n3)CC2)CC1 (stereo not drawn) [Hydrobromide Form F crystal]
[2]; Table 10, room temperature −200° C.
  Thermal stability TG: weight change: 4.8%
[3]; Table 10, 1 week, increase or decrease of related substance(s), HPLC area percentage
  Chemical stability 60° C. (sealed): 0.02%
[3]; [7]
  Chemical stability 60° C., 75% RH, 1 week (open): 0.12%
[1]; [8]
  Hygroscopicity or Deliquescency Weight change at 90% RH: 3.5%*^1
[1]
  Hydration state (hydration stage in moisture adsorption): hydrate

## CC(=O)NC1CCC(NC(=O)CN2CCN(c3nncc(-c4ccc(C)cc4)n3)CC2)CC1.CC(=O)NC1CCC(NC(=O)CN2CCN(c3nncc(-c4ccc(C)cc4)n3)CC2)CC1.O.O.O.O.O=S(=O)(O)O.O=S(=O)(O)O.O=S(=O)(O)O.O=S(=O)(O)O.O=S(=O)(O)O (stereo not drawn) [Sulfate Form B crystal]
[2]; 25-93° C.
  Thermal stability TG: weight change: 4.3%
[2]; 93-105° C.
  Thermal stability TG: weight change: 1.6%
[2]
  Thermal stability, conclusion in words: excellent thermal stability
[3]; [5]
  Chemical stability 60° C., 75% RH, 1 week (open): 0.13%
[3]; [6]
  Chemical stability 60° C. (sealed): 0%
[3]
  Chemical stability, conclusion in words: excellent chemical stability
[1]; [4]
  Hygroscopicity or Deliquescency Weight change at 90% RH: 5%*^1
[1]
  Hygroscopicity or deliquescency, conclusion in words: excellent in the reduced hygroscopicity or deliquescency
  Hydration state (hydration stage in moisture adsorption): hydrate

## Br.CC(=O)NC1CCC(NC(=O)CN2CCN(c3nncc(-c4ccc(C)cc4)n3)CC2)CC1 (stereo not drawn) [Hydrobromide Form N crystal]
[2]; Table 10, 25-242° C.
  Thermal stability TG: weight change: 6.2%
[3]; [7]
  Chemical stability 60° C., 75% RH, 1 week (open): 0.00%
[1]; [8]
  Hygroscopicity or Deliquescency Weight change at 90% RH: 7.2%*^1
[1]
  Hydration state (hydration stage in moisture adsorption): hydrate

## CC(=O)NC1CCC(NC(=O)CN2CCN(c3nncc(-c4ccc(C)cc4)n3)CC2)CC1.O=C(O)C=CC(=O)O (stereo not drawn) [Maleate Form A crystal]
[2]
  Thermal stability, conclusion in words: excellent thermal stability
[2]; no temperature range printed
  Thermal stability TG: weight change: 0.0%
[3]; [5]
  Chemical stability 60° C., 75% RH, 1 week (open): 0.12%
[3]; [6]
  Chemical stability 60° C. (sealed): 0.01%
[3]
  Chemical stability, conclusion in words: excellent chemical stability
[1]; [4]
  Hygroscopicity or Deliquescency Weight change at 90% RH: 22%

## CC(=O)NC1CCC(NC(=O)CN2CCN(c3nncc(-c4ccc(C)cc4)n3)CC2)CC1.O=C(O)CO (stereo not drawn) [Glycolate Form A crystal]
[2]; 70° C.-melting point
  Thermal stability TG: weight change: 14.4%
[3]; [5]
  Chemical stability 60° C., 75% RH, 1 week (open): 0.02%
[3]; [6]
  Chemical stability 60° C. (sealed): 0.02%
[3]
  Chemical stability, conclusion in words: excellent chemical stability
[1]; [4]
  Hygroscopicity or Deliquescency Weight change at 90% RH: 1.9%
[1]
  Hygroscopicity or deliquescency, conclusion in words: excellent in the reduced hygroscopicity or deliquescency

## CC(=O)NC1CCC(NC(=O)CN2CCN(c3nncc(-c4ccc(C)cc4)n3)CC2)CC1.O=C(O)CC(O)(CC(=O)O)C(=O)O (stereo not drawn) [Citrate Form A crystal]
[2]; 25° C.-melting point
  Thermal stability TG: weight change: 2.2%
[2]
  Thermal stability, conclusion in words: excellent thermal stability
[3]; [5]
  Chemical stability 60° C., 75% RH, 1 week (open): 0.03%
[3]; [6]
  Chemical stability 60° C. (sealed): −0.03%
[3]
  Chemical stability, conclusion in words: excellent chemical stability
[1]; [4]
  Hygroscopicity or Deliquescency Weight change at 90% RH: 7.6%

## CC(=O)NC1CCC(NC(=O)CN2CCN(c3nncc(-c4ccc(C)cc4)n3)CC2)CC1.Cl.Cl (stereo not drawn) [Hydrochloride Form B crystal]
[1]; [4]
  Hygroscopicity or Deliquescency Weight change at 90% RH: 5.5%

## CC(=O)NC1CCC(NC(=O)CN2CCN(c3nncc(-c4ccc(C)cc4)n3)CC2)CC1.Cc1ccc(S(=O)(=O)O)cc1.Cc1ccc(S(=O)(=O)O)cc1 (stereo not drawn) [Tosilate Form C crystal]
[2]; 25° C.-melting point
  Thermal stability TG: weight change: 1.2%
[2]
  Thermal stability, conclusion in words: excellent thermal stability
[3]; [5]
  Chemical stability 60° C., 75% RH, 1 week (open): 0.39%
[3]; [6]
  Chemical stability 60° C. (sealed): 0.04%
[3]
  Chemical stability, conclusion in words: excellent chemical stability
[1]; [4]
  Hygroscopicity or Deliquescency Weight change at 90% RH: 1.4%
[1]
  Hygroscopicity or deliquescency, conclusion in words: excellent in the reduced hygroscopicity or deliquescency

## CC(=O)NC1CCC(NC(=O)CN2CCN(c3nncc(-c4ccc(C)cc4)n3)CC2)CC1.O=C(O)CC(O)C(=O)O (stereo not drawn) [Malate Form A crystal]
[2]; 25-280° C.
  Thermal stability TG: weight change: 21.2%
[1]; [4]
  Hygroscopicity or Deliquescency Weight change at 90% RH: 15%
